Results taken from ChEMBL document CHEMBL1201862, “PubChem BioAssay data set” (2004).
Blank lines part the entries; values can stand above or below the compound they belong to. Activity calls are given as the source filed them.

Tests used:
[1] = target: Cytochrome P450 2C19 (Homo sapiens, UniProt P33261); assay: Cytochrome panel assay with activity outcomes. Panel member name: p450-cyp2c19 Compounds with AC50 equal or less than 10 uM are considered active; format: functional
[2] = target: Cytochrome P450 2D6 (Homo sapiens, UniProt P10635);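 note: CYP2D6 member of a cytochrome P450 panel assay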
[3] = target: T1, Heat shock factor protein 1 (Mus musculus, UniProt P38532); assay: decrease of HSF1-responsive luciferase luminescence – cell-based, NIH3T3, dose retest, confirmation (AID 2382); format: functional;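 note: NIH3T3 fibroblasts with HSF1-driven luciferase reporter stressed by proteasome inhibitor MG132; luminescence from HSF1-driven luciferase expression after 8 hours of MG132 stress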
T1 sequence (P38532 whole entry): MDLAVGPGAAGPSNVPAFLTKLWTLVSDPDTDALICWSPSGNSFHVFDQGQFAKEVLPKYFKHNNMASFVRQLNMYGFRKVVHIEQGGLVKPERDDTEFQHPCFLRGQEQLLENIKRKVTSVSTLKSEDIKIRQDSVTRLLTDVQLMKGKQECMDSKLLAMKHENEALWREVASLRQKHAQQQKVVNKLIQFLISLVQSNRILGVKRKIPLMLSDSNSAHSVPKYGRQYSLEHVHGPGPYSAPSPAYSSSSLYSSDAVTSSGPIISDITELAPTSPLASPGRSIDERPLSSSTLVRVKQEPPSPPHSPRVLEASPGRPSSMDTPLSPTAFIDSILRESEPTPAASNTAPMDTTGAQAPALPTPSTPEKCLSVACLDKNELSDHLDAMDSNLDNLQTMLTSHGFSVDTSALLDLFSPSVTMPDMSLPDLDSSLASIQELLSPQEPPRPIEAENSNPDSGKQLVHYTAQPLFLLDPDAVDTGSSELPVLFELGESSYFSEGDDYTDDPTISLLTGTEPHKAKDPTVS

[4] = target: Cytochrome P450 2C9 (Homo sapiens, UniProt P11712)
[5] = Trypanosoma cruzi growth suppression in host cells – NIH3T3 host cells, beta-gal luminescence, confirmation (AID 2044); format: functional, cell-based;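 note: intracellular parasites grown in NIH/3T3 mouse fibroblasts as host cells; luminescent beta-galactosidase reporter signal from transgenic T. cruzi replicating inside host cells; inhibitors lower the luminescence signal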
[6] = NIH3T3 cell viability loss – ATP luminescence, mouse fibroblasts, counter-screen, dose response (AID 2010); format: functional, cell-based;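 note: cells exposed to compound for about 90 hours before reading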
[7] = tested on: Streptococcus sp. 'group A'; assay: Streptococcus pyogenes SK(-)GAS viability under kanamycin – luminescence, BacTiterGlo, confirmation, counter-screen for streptokinase expression inhibitor project, dose response (AID 1900); format: functional, organism-based
[8] = tested on: Streptococcus; assay: GAS UMAA2166 growth inhibition – luminescence, BacTiterGlo, counter-screen for streptokinase expression inhibitor project, dose response (AID 1915); format: functional, organism-based;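 note: potency for reduction of bacterial viability or growth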
[9] = target: T2, Cytochrome P450 1A2 (Homo sapiens, UniProt P05177)
T2 sequence (P05177 whole entry): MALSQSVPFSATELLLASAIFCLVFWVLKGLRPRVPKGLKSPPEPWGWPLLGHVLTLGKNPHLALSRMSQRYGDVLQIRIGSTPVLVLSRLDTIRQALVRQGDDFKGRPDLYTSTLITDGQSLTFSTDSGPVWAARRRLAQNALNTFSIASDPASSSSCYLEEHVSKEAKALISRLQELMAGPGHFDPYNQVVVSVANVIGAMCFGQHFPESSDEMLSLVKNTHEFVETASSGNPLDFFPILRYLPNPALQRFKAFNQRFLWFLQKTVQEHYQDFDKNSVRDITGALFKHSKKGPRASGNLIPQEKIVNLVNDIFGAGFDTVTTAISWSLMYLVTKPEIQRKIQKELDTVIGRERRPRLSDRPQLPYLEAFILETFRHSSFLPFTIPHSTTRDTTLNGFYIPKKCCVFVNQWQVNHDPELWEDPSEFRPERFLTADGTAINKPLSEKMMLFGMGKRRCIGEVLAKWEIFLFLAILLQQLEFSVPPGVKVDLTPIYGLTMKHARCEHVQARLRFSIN

Chain of Cytochrome P450 2C19 (P33261 whole entry): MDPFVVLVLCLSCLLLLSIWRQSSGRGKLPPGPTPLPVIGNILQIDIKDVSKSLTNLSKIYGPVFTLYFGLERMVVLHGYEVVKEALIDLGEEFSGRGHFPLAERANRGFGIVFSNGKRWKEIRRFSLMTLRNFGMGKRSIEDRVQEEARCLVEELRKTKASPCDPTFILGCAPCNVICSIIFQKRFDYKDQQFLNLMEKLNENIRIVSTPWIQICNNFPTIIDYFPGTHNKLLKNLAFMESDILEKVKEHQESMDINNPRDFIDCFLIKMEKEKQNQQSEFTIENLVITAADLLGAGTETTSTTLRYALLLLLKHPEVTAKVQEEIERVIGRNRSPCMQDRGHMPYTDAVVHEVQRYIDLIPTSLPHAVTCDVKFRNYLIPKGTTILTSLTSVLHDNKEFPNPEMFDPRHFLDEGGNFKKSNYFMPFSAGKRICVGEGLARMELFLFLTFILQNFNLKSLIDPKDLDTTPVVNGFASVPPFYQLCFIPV
Chain of Cytochrome P450 2D6 (P10635 whole entry): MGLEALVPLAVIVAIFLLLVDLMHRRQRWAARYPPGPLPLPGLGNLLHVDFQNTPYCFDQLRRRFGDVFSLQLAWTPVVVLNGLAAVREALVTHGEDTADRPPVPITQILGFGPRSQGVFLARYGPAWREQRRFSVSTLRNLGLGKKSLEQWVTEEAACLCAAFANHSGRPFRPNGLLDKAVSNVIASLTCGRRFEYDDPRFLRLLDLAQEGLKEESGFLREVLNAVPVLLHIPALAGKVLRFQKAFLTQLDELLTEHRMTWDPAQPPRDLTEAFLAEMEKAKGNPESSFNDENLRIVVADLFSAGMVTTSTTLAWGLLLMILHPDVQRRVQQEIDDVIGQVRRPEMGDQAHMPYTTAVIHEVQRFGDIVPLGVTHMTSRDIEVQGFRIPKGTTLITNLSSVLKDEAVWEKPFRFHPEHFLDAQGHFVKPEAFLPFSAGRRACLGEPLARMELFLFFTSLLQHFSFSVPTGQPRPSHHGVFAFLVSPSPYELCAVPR
Chain of Cytochrome P450 2C9 (P11712 whole entry): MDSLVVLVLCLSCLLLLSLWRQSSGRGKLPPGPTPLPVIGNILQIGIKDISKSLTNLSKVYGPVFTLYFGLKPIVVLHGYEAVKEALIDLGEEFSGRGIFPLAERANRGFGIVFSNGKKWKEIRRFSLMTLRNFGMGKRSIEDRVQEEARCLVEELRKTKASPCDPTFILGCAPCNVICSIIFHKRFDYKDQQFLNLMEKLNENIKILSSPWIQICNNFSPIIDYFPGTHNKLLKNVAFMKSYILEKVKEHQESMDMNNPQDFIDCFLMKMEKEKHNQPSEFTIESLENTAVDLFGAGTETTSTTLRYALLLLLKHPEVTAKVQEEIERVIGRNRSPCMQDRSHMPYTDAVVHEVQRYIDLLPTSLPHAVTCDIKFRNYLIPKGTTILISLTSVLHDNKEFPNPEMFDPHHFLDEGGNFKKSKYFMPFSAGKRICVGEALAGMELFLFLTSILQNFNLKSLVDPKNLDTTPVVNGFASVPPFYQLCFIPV

- AC50 ([1]; read-out: AC50): 3.16 µM (inconclusive)
- AC50 [2]: 5.01 µM (inconclusive)
Structure (SMILES): C=CC[C@@H]1C=C[C@H](O/N=C2\c3cc(OC)ccc3O[C@H](c3cccc(OC)c3)[C@H]2O)[C@H](CO)O1

- EC50 [3]: > 195 µM (not active)
Structure (SMILES): CN(CC(=O)NCc1cccnc1)S(=O)(=O)c1ccc2c(c1)c(=O)n(C)c(=O)n2C

- EC50 [3]: > 195 µM (not active)
Structure (SMILES): CCC(C)c1ccc(NC(=O)C2CC2)cc1 (centres undefined)

- AC50 [4]: 20 µM (inconclusive)
Structure (SMILES): CSc1nc(C)c(CCOC(=O)c2ccccc2)c(O)n1

Structure (SMILES): Clc1ccc(SCCN2CCNCC2)cc1
- EC50 [5]: 0.511 µM (active)
- EC50 [6]: 9.8 µM (active)

Structure (SMILES): COc1ccc(CCNCC(O)COc2cccc(C(C)=O)c2)cc1OC (centres undefined)
- EC50 [5]: 0.225 µM (active)
- EC50 [6]: > 60 µM (not active)

Structure (SMILES): FC(F)(F)c1cccc(NC(S)=NN=C(S)Nc2ccc(Cl)cc2)c1
- EC50 [7]: 3.28 µM (active)
- EC50 [8]: 5.47 µM (active)

- AC50 [4]: 0.0251 µM (inconclusive)
Structure (SMILES): CC1CC(OCC(O)CN2CCN(Cc3ccccc3)CC2)CC(C)(C)C1 (centres undefined)

- EC50 [3]: > 195 µM (not active)
Structure (SMILES): CCCCN(C(=O)COc1ccc(C)cc1OC)c1c(N)n(CCC)c(=O)[nH]c1=O

Structure (SMILES): Nc1ccccc1Nc1cc(-c2ccccc2)nn1-c1ccccc1
- EC50 [5]: 7.72 µM (active)
- EC50 [6]: > 60 µM (inconclusive)

Structure (SMILES): CC(C)c1ccc(NC(=O)c2cc3c(=O)n(C)c4ccccc4c3n2C)cc1
- EC50 [5]: 1.12 µM (active)
- EC50 [6]: 16.2 µM (active)

Structure (SMILES): COc1ccc(C(=O)Nc2ccc(S(=O)(=O)N3CCCC3)cc2)c(OC)c1
- EC50 [5]: 11.1 µM (active)
- EC50 [6]: > 60 µM (not active)

Structure (SMILES): O=C(NC(=S)N(CCCCO)C1CCCCC1)c1sc2ccccc2c1Cl
- EC50 [7]: 0.891 µM (active)
- EC50 [8]: 7.75 µM (active)
- AC50 [2]: 22.4 µM (inconclusive)

- EC50 [3]: > 195 µM (not active)
Structure (SMILES): COc1ccc(-n2c(-c3ccc(F)cc3)cnc2SCC(=O)NCc2ccco2)cc1

- EC50 [3]: > 195 µM (not active)
Structure (SMILES): CCN(c1ccccc1)S(=O)(=O)c1ccc(Cl)c(C(=O)N(CC2CCCO2)C2CCS(=O)(=O)C2)c1 (centres undefined)

- AC50 [9]: 25.1 µM (inconclusive)
Structure (SMILES): CCOC(=O)c1sc2c(c1C)c(=O)c(C(=O)OCC)cn2CC

Structure (SMILES): O=[N+]([O-])c1nn(-c2ccccc2)[n+]([O-])c1N1CCN(c2ccccc2)CC1
- EC50 [5]: 0.483 µM (active)
- EC50 [6]: > 60 µM (not active)

Structure (SMILES): CC(C)C(=O)N1CCN(c2cc(N3CCN(C)CC3)c(F)cc2[N+](=O)[O-])CC1
- EC50 [5]: 0.625 µM (active)
- EC50 [6]: > 60 µM (not active)

- AC50 ([1]; read-out: AC50): 15.8 µM (inconclusive)
- AC50 [4]: 31.6 µM (inconclusive)
Structure (SMILES): O=C(c1cnccn1)N1CCC2(CC1)CN(Cc1ccccc1)C2

Structure (SMILES): N=C(N)N/N=C/c1cccc(Cl)c1Cl
- EC50 [5]: 0.435 µM (active)
- EC50 [6]: > 60 µM (not active)

- AC50 [1]: inconclusive
- AC50 [2]: 39.8 µM (inconclusive)
Structure (SMILES): Cc1noc(C)c1-c1cncnc1N1CCN(C)CC1

- AC50 [1]: inconclusive
Structure (SMILES): CN1C(=O)CC(NNC(=O)c2ccccc2)C1=O (centres undefined)

- AC50 ([1]; read-out: AC50): 6.31 µM (inconclusive)
- AC50 [4]: 1 µM (inconclusive)
Structure (SMILES): O=[N+]([O-])c1cccc(/C=N\Nc2ccc3ccccc3n2)c1O

- EC50 [3]: > 195 µM (not active)
Structure (SMILES): Cc1cc(C)c2nc(O)c(C(c3nnnn3CC3CCCO3)N3CCC(C)CC3)cc2c1 (centres undefined)

- AC50 [9]: 22.4 µM (inconclusive)
Structure (SMILES): CC1(C)Cc2c(sc3c2C(=O)N(c2ccccc2)C2=NCCN23)CS1

- EC50 [3]: > 195 µM (not active)
Structure (SMILES): COc1cccc(C(=O)CC(=O)C(=O)Nc2cc(OC)c(OC)c(OC)c2)c1

- AC50 ([1]; read-out: AC50): 2.82 µM (inconclusive)
- AC50 [2]: 3.98 µM (inconclusive)
Structure (SMILES): Cc1c(C(=O)Nc2nccs2)sc2nc(-c3cccs3)cc(C(F)(F)F)c12

Structure (SMILES): Cc1ccc(N(Cc2ccco2)C(=O)c2ccc(N3CCCCC3)c([N+](=O)[O-])c2)cc1
- EC50 [5]: 1.27 µM (active)
- EC50 [6]: > 60 µM (not active)

- AC50 ([1]; read-out: AC50): 35.5 µM (inconclusive)
Structure (SMILES): O=C1N=C(N2CCOCC2)S/C1=C\C=C/c1ccccc1

- AC50 [4]: 8.91 µM (inconclusive)
Structure (SMILES): COC(=O)c1ccccc1NC(=O)C1CCN(C(=O)c2ccc(OC)cc2)CC1

Structure (SMILES): C/C(=N\Nc1nc2ccccc2[nH]1)c1ccc2c(c1)OCCO2
- EC50 [5]: 1.89 µM (active)
- EC50 [6]: > 60 µM (not active)
